Reference: patent US6403607B1, “Sulfonamide derivatives and drugs containing the same as the active ingredient” (priority 1998, dated 2002)
In brackets after ≈: the same amount, converted by molar mass. Read-outs that look alike come from different tables or passages of the source.

How the values were obtained:
[1] = system: ethanol ulcer in the gland gastric region; assay: Ethanol ulcer; type: in vivo; details: rats fasted 24 hours, drug oral, 99.5% ethanol 1 ml/rat after one hour, size of ulcer one hour later; for Suppression: dose not given
Procedure: Ethanol Ulcer Rats were fasted for 24 hours and orally administered with a drug. After one hour, 99.5% ethanol (1 ml/rat) was fed through oral administration. After one hour of ethanol administration, the abdomens of the rats were dissected and the size of ulcer in the gland gastric region was measured for each rat.

[2] = system: Helicobacter pylori; assay: Anti-Helicobacter-pylori action (agar plate dilution MIC); type: cell-based; details: clinically isolated 10 bacterial strains, agar plate dilution method
Procedure: Anti-Helicobacter-pylori Action
Using clinically isolated 10 bacterial strains, the minimum inhibitory concentration (MIC) was measured according to the agar plate dilution method.

[3] = system: HCl-ethanol ulcer in the gland gastric region; assay: HCl-ethanol ulcer; type: in vivo, Rats
Procedure: HCl-ethanol Ulcer Rats were fasted for 24 hours and orally administered with a drug. After one hour, 60% ethanol containing 0.15 N hydrochloric acid (1 ml/rat) was perorally administered to each rat. One hour after ethanol administration, the size of ulcer in the gland gastric region was measured for evaluation of anti-ulcer effects of the drug.

[4] = Helicobacter pylori, read-out: MIC
[5] = rats fasted 24 hours, drug oral, 60% ethanol containing 0.15 N hydrochloric acid 1 ml/rat after one hour, size of ulcer one hour later, dose not given

MIC [2] [mg/L] | SMILES | Suppression [1] [%] | also measured
1.56 to 6.25 | O=S(=O)(c1ccc(Cl)cc1)N(CCN1CCCC1)c1ccccc1NCCOc1ccc(Cl)cc1 [Example 8, N-(4-Chlorobenzenesulfonyl)-N-[2-(1-pyrolidino)ethyl]-N′-[2-(4-chlorophenoxy)ethyl]-o-phenylenediamine] | 86 | 
 | O=S(=O)(c1ccc(Cl)cc1)N(CCO)c1ccccc1NCCOc1ccc(Cl)cc1 [Example 9, N-(4-Chlorobenzenesulfonyl)-N-(2-hydroxyethyl]-N′-[2-(4-chlorophenoxy)ethyl]-o-phenylenediamine] | 85 | MIC [2, 4]: 25 to 50 mg/L (≈ 51.9 to 104 µM)
 | O=S(=O)(c1ccc(Cl)cc1)N(CCCc1ccncc1)c1ccccc1NCCOc1ccc(Cl)cc1 [Example 10, N-(4-Chlorobenzenesulfonyl)-N-[3-(4-pyridyl)propyl]-N′-[2-(4-chlorophenoxy)ethyl]-o-phenylenediamine] | 82 | MIC [2, 4]: 25 to 100 mg/L (≈ 44.9 to 180 µM)
 | COc1ccc(S(=O)(=O)N(CCN)c2ccccc2NCCOc2ccc(Cl)cc2)cc1 [Example 11, N-(2-Aminoethyl)-N-(4-methoxybenzenesulfonyl)-N′-[2-(4-chlorophenoxy)ethyl]-o-phenylenediamine] | 96 | 
 | CNC(=NC#N)NCCOCCN(c1ccccc1NCCOc1ccc(Cl)cc1)S(=O)(=O)c1ccc(Cl)cc1 [Example 14, N-(4-Chlorobenzenesulfonyl)-N-[2-(2-cyano-3-methylguanidino)ethoxyethyl]-N′-[2-(4-chlorophenoxy)ethyl]-o-phenylenediamine] |  | MIC [2, 4]: 6.25 to 50 mg/L (≈ 10.3 to 82.6 µM)
25 to 50 | O=C(NCCOCCN(c1ccccc1NCCOc1ccc(Cl)cc1)S(=O)(=O)c1ccc(Cl)cc1)NC1CCCCC1 [Example 17, N-(4-Chlorobenzenesulfonyl)-N-[2-(2-cyclohexylureido)ethoxyethyl]-N′-[2-(4-chlorophenoxy)ethyl]-o-phenylenediamine] |  | 
 | NCCOCCN(c1ccccc1NCCOc1ccc(Cl)cc1)S(=O)(=O)c1ccccc1 [Example 33] | 83 | 
 | Cc1ccc(S(=O)(=O)N(CCOCCN)c2ccccc2NCCOc2ccc(Cl)cc2)cc1 [Example 35, N-[2-(2-Amino)ethoxyethyl]-N-(p-toluenesulfonyl)-N′-[2-(4-chlorophenoxy)ethyl]-o-phenylenediamine] | 99 | 
 | Cc1ccc(S(=O)(=O)N(CCN(C)C)c2ccccc2NCCOc2ccc(Cl)cc2)cc1.Cl [Example 36, N-[2-(Dimethylamino)ethyl]-N-(p-toluenesulfonyl)-N′-[2-(4-chlorophenoxy)ethyl]-o-phenylenediamine Hydrochloride] |  | Suppression [3, 5]: 92%
 | CN(C)CCN(c1ccccc1NCCOc1ccc(Cl)cc1)S(=O)(=O)c1cccc2ccccc12.Cl [Example 38, N-[2-(Dimethylamino)ethyl]-N-(1-naphthalenesulfonyl)-N′-[2-(4-chlorophenoxy)ethyl]-o-phenylenediamine Hydrochloride] |  | Suppression [3, 5]: 93%
 | NCCOCCN(c1ccccc1NCCOc1ccc(Cl)cc1)S(=O)(=O)c1ccc(F)cc1 [Example 41, N-[2-(2-Amino)ethoxyethyl]-N-(4-fluorobenzenesulfonyl)-N′-[2-(4-chlorophenoxy)ethyl]-o-phenylenediamine] | 93 | 
 | CN(C)CCN(c1ccccc1NCCOc1ccc(Cl)cc1)S(=O)(=O)c1ccc(Br)cc1.Cl [Example 44, N-[2-(Dimethylamino)ethyl]-N-(4-bromobenzenesulfonyl)-N′-[2-(4-chlorophenoxy)ethyl]-o-phenylenediamine.HCl] |  | Suppression ([3]; rat, in vivo, po): 87%
 | NCCOCCN(c1ccccc1NCCOc1ccc(F)cc1)S(=O)(=O)c1ccc(Cl)cc1 [Example 47, N-[2-(2-Amino)ethoxyethyl]-N-(4-chlorobenzenesulfonyl)-N′-[2-(4-fluorophenoxy)ethyl]-o-phenylenediamine] | 100 | 
 | CN(C)CCN(c1ccccc1NCCOc1ccc(F)cc1)S(=O)(=O)c1ccc(Cl)cc1.Cl [Example 48, N-[2-(Dimethylamino)ethyl]-N-(4-chlorobenzenesulfonyl)-N′-[2-(4-fluorophenoxy)ethyl]-o-phenylenediamine Hydrochloride] |  | Suppression [3, 5]: 85%
 | CN(C)CCN(c1ccccc1NCCOc1ccc(Cl)cc1)S(=O)(=O)c1cccc(Cl)c1.Cl [Example 52, N-[2-(Dimethylamino)ethyl]-N-(3-chlorobenzenesulfonyl)-N′-[2-(4-chlorophenoxy)ethyl]-o-phenylenediamine Hydrochloride] |  | Suppression [3, 5]: 87%
 | Cc1ccc(OCCNc2ccccc2N(CCN(C)C)S(=O)(=O)c2ccc(Cl)cc2)cc1.Cl [Example 53, N-[2-(Dimethylamino)ethyl]-N-(4-chlorobenzenesulfonyl)-N′-[2-(4-methylphenoxy)ethyl]-o-phenylenediamine Hydrochloride] |  | Suppression [3, 5]: 92%

MIC [2] [mg/L] | SMILES | Suppression [1] [%] | also measured
 | CN(C)CCN(c1ccccc1NCCOc1ccc(Br)cc1)S(=O)(=O)c1ccc(Cl)cc1.Cl [Example 54, N-[2-(Dimethylamino)ethyl]-N-(4-chlorobenzenesulfonyl)-N′-[2-(4-bromophenoxy)ethyl]-o-phenylenediamine Hydrochloride] |  | Suppression [3, 5]: 77%
 | NCCN(c1ccccc1NCCNc1ccc(Cl)cc1)S(=O)(=O)c1ccc(Cl)cc1 [Example 60, N-(2-Aminoethyl)-N-(4-chlorobenzenesulfonyl)-N′-[2-(4-chlorophenylamino)ethyl]-o-phenylenediamine] |  | MIC [2, 4]: 6.25 to 25 mg/L (≈ 13 to 52.1 µM)
 | NCCN(c1ccccc1NCC=Cc1ccc(Cl)cc1)S(=O)(=O)c1ccc(Cl)cc1 [Example 62, N-(2-Aminoethyl)-N-(4-chlorobenzenesulfonyl)-N′-(4-chlorocinnamyl)-o-phenylenediamine] |  | MIC [2, 4]: 1.56 to 12.5 mg/L (≈ 3.27 to 26.2 µM)
 | NCCN(c1ccccc1NCCSc1ccc(Cl)cc1)S(=O)(=O)c1ccc(Cl)cc1 [Example 65, N-(2-Aminoethyl)-N-(4-chlorobenzenesulfonyl)-N′-[2-(4-Chlorophenylthio)ethyl]-o-phenylenediamine] |  | MIC [2, 4]: 6.25 to 25 mg/L (≈ 12.6 to 50.4 µM)
6.25 to 12.5 | O=S(=O)(Nc1cccnc1NCCNc1ccc(Cl)cc1)c1ccc(Cl)cc1 [Example 77] |  | 
>100 | NCCN(c1cccnc1N1CCN(c2ccc(Cl)cc2)C(=O)C1=O)S(=O)(=O)c1ccc(Cl)cc1 [Example 92, 3-[N-(4-Chlorobenzenesulfonyl)-N-(2-aminoethyl)]amino-2-[4-(4-chlorophenyl)-2,3-dioxo-1-piperadino]pyridine] |  | 
25 to 100 | O=S(=O)(c1ccc(Cl)cc1)N(CCN1CCNCC1)c1cccnc1NCCNc1ccc(Cl)cc1 [Example 97, 3-[N-(4-Chlorobenzenesulfonyl)-N-[2-(1-piperazinyl)ethyl]]amino-2-[2-(4-chlorophenyl)aminoethyl]aminopyridine] | 81 | 
 | NCCN(c1cccnc1NCCOc1ccc(Cl)cc1)S(=O)(=O)c1ccc(Cl)cc1 [Example 106, 2-[2-(4-Chlorophenoxy)ethyl]amino-3-[N-(2-aminoethyl)-N-(4-chlorobenzenesulfonyl)]aminopyridine] | 98 | ED50 [1]: 8.4 mg/kg
25 (≈ 38.2 µM) | NCCN(c1cccnc1NCCN(c1ccc(Cl)cc1)S(=O)(=O)c1ccc(Cl)cc1)S(=O)(=O)c1ccc(Cl)cc1 [Example 111, 2-[2-[N-(4-Chlorophenyl)-N-(4-chlorobenzenesulfonyl)]aminoethyl]amino-3-[N-(2-aminoethyl)-N-(4-chlorobenzenesulfonyl)]aminopyridine] | 100 | 
12.5 to 50 | COc1ccc(NCCNc2ncccc2N(CCN)S(=O)(=O)c2ccc(OC)cc2)cc1 [Example 112, 3-[N-(2-Aminoethyl)-N-(4-methoxybenzenesulfonyl)]amino-2-[2-(4-methoxyphenyl)aminoethyl]aminopyridine] |  | 
25 to 50 | NCCN(c1cccnc1OCCNc1ccc(Cl)cc1)S(=O)(=O)c1ccc(Cl)cc1 [Example 113, 2-[2-(4-Chlorophenyl)aminoethoxy]-3-[N-(2-aminoethyl)-N-(4-chlorobenzenesulfonyl)]aminopyridine] | 87 | 
12.5 to 25 | Cc1ccc(NCCNc2ncccc2N(CCN)S(=O)(=O)c2ccc(C)cc2)cc1 [Example 114, 3-[N-(2-Aminoethyl)-N-(p-toluenesulfonyl)]amino-2-[2-(p-tolyl)aminoethyl]aminopyridine] |  | 
6.25 to 12.5 | CCN(CCNc1ncccc1N(CCN)S(=O)(=O)c1ccc(Cl)cc1)c1ccc(Cl)cc1 [Example 116, 2-[2-[N-(4-Chlorophenyl)-N-ethyl]aminoethyl]amino-3-[N-(2-aminoethyl)-N-(4-chlorobenzenesulfonyl)]aminopyridine] | 99 | 
12.5 to 25 | NCCN(c1ccccc1OCCNc1ccc(Cl)cc1)S(=O)(=O)c1ccc(Cl)cc1 [Example 122, 1-[2-(4-Chlorophenyl)aminoethoxy]-2-[N-(2-aminoethyl)-N-(4-chlorobenzenesulfonyl)]aminobenzene] | 99 | 
3.13 to 12.5 | NCCN(c1cccnc1N1CCN(c2ccc(Cl)cc2)CC1)S(=O)(=O)c1ccc(Cl)cc1 [Example 136, 2-[4-(4-Chlorophenyl)-1-piperazino]-3-[N-(2-aminoethyl)-N-(4-chlorobenzenesulfonyl)]aminopyridine] | 80 | 
3.13 to 12.5 | CN(C)CCN(c1cccnc1N1CCN(c2ccc(Cl)cc2)CC1)S(=O)(=O)c1ccc(Cl)cc1 [Example 138, 2-[4-(4-Chlorophenyl)-1-piperazino]-3-[N-(2-dimethylaminoethyl)-N-(4-chlorobenzenesulfonyl)]aminopyridine] |  | 
